The source made the active and inactive calls. No rule for the calls is given here.
These compounds were tested against Nuclear receptor coactivator 3 (Homo sapiens) (UniProt Q9Y6Q9) (assay: SRC3 coactivator transcriptional activity inhibitors, dose response, cell-based, luminescence (AID 602166;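 also: potency for reduction of SRC3 reporter signal so compounds are inhibitors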)). Details: SRC3 luciferase reporter cell assay.
Nuclear receptor coactivator 3 (Homo sapiens), sequence (Q9Y6Q9 whole entry, looked up): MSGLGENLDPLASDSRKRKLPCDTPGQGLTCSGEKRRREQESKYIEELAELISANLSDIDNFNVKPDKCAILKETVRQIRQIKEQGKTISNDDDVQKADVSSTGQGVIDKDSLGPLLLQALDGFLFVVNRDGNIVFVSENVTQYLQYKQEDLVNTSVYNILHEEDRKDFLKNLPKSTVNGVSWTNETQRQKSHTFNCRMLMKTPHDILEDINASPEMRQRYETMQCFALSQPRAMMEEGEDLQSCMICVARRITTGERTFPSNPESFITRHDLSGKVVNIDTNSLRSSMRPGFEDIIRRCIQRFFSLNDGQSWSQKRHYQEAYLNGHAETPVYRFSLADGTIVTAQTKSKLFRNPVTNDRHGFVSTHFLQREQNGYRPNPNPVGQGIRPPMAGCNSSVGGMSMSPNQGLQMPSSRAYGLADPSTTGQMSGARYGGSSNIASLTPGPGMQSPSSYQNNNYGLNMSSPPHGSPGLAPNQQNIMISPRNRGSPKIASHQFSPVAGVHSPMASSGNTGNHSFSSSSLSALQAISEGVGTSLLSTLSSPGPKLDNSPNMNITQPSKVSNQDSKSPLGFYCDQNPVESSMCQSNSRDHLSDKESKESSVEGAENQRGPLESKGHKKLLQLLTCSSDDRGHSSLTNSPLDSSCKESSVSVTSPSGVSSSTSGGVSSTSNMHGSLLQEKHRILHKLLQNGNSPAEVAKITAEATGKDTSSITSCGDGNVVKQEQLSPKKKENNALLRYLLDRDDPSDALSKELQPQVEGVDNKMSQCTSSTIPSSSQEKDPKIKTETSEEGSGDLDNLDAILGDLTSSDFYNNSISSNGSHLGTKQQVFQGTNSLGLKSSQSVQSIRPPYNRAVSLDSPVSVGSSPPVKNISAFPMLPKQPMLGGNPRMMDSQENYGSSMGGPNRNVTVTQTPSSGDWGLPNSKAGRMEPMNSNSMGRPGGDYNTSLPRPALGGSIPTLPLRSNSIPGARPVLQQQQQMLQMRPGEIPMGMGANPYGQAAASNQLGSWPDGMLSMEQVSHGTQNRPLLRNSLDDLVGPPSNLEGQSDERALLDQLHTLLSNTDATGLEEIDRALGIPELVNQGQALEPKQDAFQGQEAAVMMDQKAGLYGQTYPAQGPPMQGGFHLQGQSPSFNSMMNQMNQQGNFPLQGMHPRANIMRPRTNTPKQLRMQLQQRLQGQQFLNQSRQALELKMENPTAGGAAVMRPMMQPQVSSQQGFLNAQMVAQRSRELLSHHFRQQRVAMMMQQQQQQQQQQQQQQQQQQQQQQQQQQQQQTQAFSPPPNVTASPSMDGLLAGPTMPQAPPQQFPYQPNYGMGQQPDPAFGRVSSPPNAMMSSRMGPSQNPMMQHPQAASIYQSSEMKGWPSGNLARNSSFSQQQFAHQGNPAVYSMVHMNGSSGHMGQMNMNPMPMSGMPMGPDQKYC
With `OCCN1CCN(C(=S)c2ccc(-c3ccccc3)cc2)CC1` the IC50 was 4.57 µM. In the case of `Cc1c(/C(O)=C2/C(=O)C(=O)N(Cc3cccnc3)C2c2ccccn2)cnn1-c1ccccc1` (centres undefined), the IC50 is reported as > 35.9 µM (inactive). For `C(=N\Nc1nc2ccccc2[nH]1)/c1cccc2cccnc12`, the IC50 was 9.18 µM. `COc1cc2c(c(OC)c1OC)-c1ccc(SC)c(=O)cc1C(NC=O)CC2` (centres undefined) was tested, and the IC50 was “inactive”.

From PubChem BioAssay AID602166 (The Scripps Research Institute Molecular Screening Center, 2012)
